System: acetylation level of H3K23 in ZR-75-1 cells
Assay: Effect on histone acetilation in ER-positive breast cancer cells (Western blotting)
Assay type: cell-based, human
Conditions: 5 days of incubation, from 5 μM, Western blot (FIG. 1)
Protocol: Test Example 4: Assay for Effects of Compounds on Histone Acetylation in Estrogen Receptor-Positive Breast Cancer Cells
Assay Method: Western Blotting Method (Immunoblotting Assay)
The effects of the test compounds on the acetylation level of H3K23 in ZR-75-1 cells (Nanjing Cobioer, CBP60402) were assayed. • 1. On day 1, the cells were plated at 400,000 cells/well (2 mL/well) and cultured overnight in an incubator at 37° C. with 5% CO2. • 2. On day 2, compounds were added starting at 5 μM, with a 10-fold serial dilution across a total of 3 concentration gradients, and DMSO was added to the negative control wells. • 3. On day 6, after 5 days of incubation with compounds, protein samples were collected: An ice box, pre-cooled PBS (4° C.), a cell lysis buffer RIPA (Beyotime, P0013B), and a protease inhibitor (100x) (Thermo Scientific™, 87786) were prepared. Then, 120 μL of the cell lysis buffer was added to each well. The mixture was placed on ice for about 15 min. […] Protein quantification by BCA method (Beyotime, P0009) • Standards (8 concentrations) were prepared, and the samples and the standards were added to a 96-well plate. […] The absorbance was then measured using a microplate reader. […]
The next day, the PVDF membrane was taken out and washed (8 min×3) with TBST (with 0.5% Tween 20). […] After the washing, a luminescence solution (Tanon, 180-506) was added for exposure. […]

Row | Compound | acetylation level of H3K23
1 | COc1ccc2c(c1S(=O)(=O)Nc1noc3cc(Cn4cccn4)c(F)c(OC)c13)OCCO2 [Compound 28, N-(6-((1H-Pyrazol-1-yl)methyl)-5-fluoro-4-methoxybenzo[d]isoxazol-3-yl)-6-methoxy-2,3-dihydrobenzo[b][1,4]dioxine-5-sulfonamide] | significantly reduce the acetylation level of H3K23
2 | COc1ccccc1S(=O)(=O)Nc1noc2cc(Cn3cccn3)cc(OC)c12 [PF-8144, reference compound] | significantly reduce the acetylation level of H3K23
